System: patients with postpartum depression (PPD)
Experiment: Clinical trial of inhaled 5-MeO-DMT in postpartum depression (one patient so far)
Method: The single-arm, open-label clinical trial will involve 15 adult female patients with clinically diagnosed postpartum depression (PPD).
The second dose (12 mg) will only be administered if: • a. […] The 6 mg dose was safe and well-tolerated according to the investigator, • c. Any psychoactive effects (PsE) of the prior dose have subsided, and • d. Pre-dose vital parameters and forced expiratory volume in one second (FEV1) are in normal range, or if outside of the normal range, are not clinically significant according to the investigator. • 3. Similarly, a third dose (18 mg) will only be administered if: • a. […] The 12 mg dose was safe and well-tolerated according to the investigator, and • c. Any PsE of the prior dose have subsided, and • d. Pre-dose vital parameters and forced expiratory volume in one second (FEV1) are in normal range, or if outside of the normal range, are not clinically significant according to the investigator.
The patients will be assessed for a peak psychedelic experience (based on a patient-scored visual analogue scale, the PE scale), sedation, and other endpoints after dosing. Follow-up visits are planned for Day 1, and Day 7 after the dosing day.
The following criteria must be met by all patients considered for clinical trial participation: • 1. Is female and in the age range between 18 and 45 years (inclusive) at screening. • 2. Has a body mass index (BMI) in the range of 18.5 and 35 kg/m^2 (inclusive) at screening. • 3. Meets the trial criteria for PPD as assessed by a trial psychiatrist or registered psychologist: • a. Diagnosis of Major Depressive Disorder without psychotic features, confirmed by the Mini-International Neuropsychiatric Interview (MINI), with peri-partum onset that began no earlier than gestation and no later than the first 4 weeks postpartum. • b. Has a Montgomery-Åsberg Depression Rating Scale (MADRS) total score of equal to or greater than 28 at screening and pre-dose on Day 0. • 6. […] Patients must have a negative pregnancy test at screening and on the pre-test day (Day −1). • 5. Is willing to delay start of other antidepressant or anxiety medication until after the end of the trial at Day 7 and agrees to keep any psychotherapy unchanged during the trial.
A potential patient who meets any of the following key exclusion criteria will be excluded from participation in this trial: • 1. Has, based on history, psychiatric assessment, and evaluation of the MINI, a current or prior diagnosis of bipolar disorder, a manic or hypomanic episode, a psychotic disorder, Major Depressive Disorder (MDD) or other mood disorder with psychotic features, obsessive compulsive disorder, post-traumatic stress disorder (PTSD), autism spectrum disorder, borderline personality disorder, schizophrenia, delusional disorder, paranoid personality disorder, schizoaffective disorder, clinically significant intellectual disability, or any other psychiatric comorbidity that renders the patient unsuitable for the trial according to the investigator's judgment. • 2. Has one or more first or second degree relatives with a current or previously diagnosed bipolar disorder, psychotic disorder or other mood disorder (including MDD) with psychotic features. • 3. Is in the judgement of a trial psychiatrist or registered psychologist, at significant risk for suicide based on history, psychiatric assessment, and evaluation of suicidal ideation and suicidal behaviour based on the Columbia-Suicide Severity Rating Scale (C-SSRS). • 4. Has taken anti-depressive medication within 14 days or 5 half-lives (whichever is longer) prior to dosing (exception: within the last 5 weeks in the case of fluoxetine). • 5.

Structure (SMILES): COc1ccc2[nH]cc(CCN(C)C)c2c1 [5-MeO-DMT]
- ECG (3 hours), safety laboratory analyses (7 days), CADSS (3 hours, 1 day, 7 days): unremarkable
- Reported adverse events (cramping left abdominal pain and headache, Day 0): mild, short-lasting and resolved spontaneously
- Tolerability of the inhalation procedure: well tolerated with no inhalation-related adverse events
- Total MADRS improvement (2 hr, baseline 29): 24
- Total MADRS score (2 hr, baseline 29): 5
- BPRS Tension improvement (Day 1, baseline 6): 5
- Total MADRS improvement (Day 1, baseline 29): 29
- Total MADRS score (Day 1, baseline 29): 0
- BIMF item 16 (I worry about how other people judge me (as a mother)) score (Day 7, Day 0 score 3): 5
- BIMF item 11 (I take a little time each week to do something for myself) score (Day 7, Day 0 score 5): 6
- BIMF functional domain Adjustment score (Day 7, Day 0 score 5, maximum possible 12): 6
- BIMF functional domain Self-Care score (Day 7, Day 0 score 9, maximum possible 18): 13
- BIMF functional domain Infant Care score (Day 7, Day 0 score 12, maximum possible 12): 12
- BIMF functional domain Mother-Child Interaction score (Day 7, Day 0 score 15, maximum possible 18): 17
- BIMF functional domain Social Support score (Day 7, Day 0 score 17, maximum possible 18): 18
- BIMF functional domain Management score (Day 7, Day 0 score 28, maximum possible 36): 33
- BIMF functional domain Psychological Well-being score (Day 7, Day 0 score 44, maximum possible 60): 53
- Total MADRS improvement (Day 7, baseline 29): 28
- Total MADRS score (Day 7, baseline 29): 1
- BIMF total score improvement (Day 7, from 92 to 105 of possible 120): 14%
- BIMF TOTAL Δ (Day 7) (Day 7 vs Day 0): 13
- BIMF functional domain Adjustment % Improvement (Day 7 vs Day 0): 20.00%
- BIMF functional domain Infant Care % Improvement (Day 7 vs Day 0): 0.00%
- BIMF functional domain Management % Improvement (Day 7 vs Day 0): 18%
- BIMF functional domain Self-Care % Improvement (Day 7 vs Day 0): 44%
- BPRS Tension improvement (Discharge, baseline 6): 5
- Standard criteria for MADRS response (at least 50% improvement) and MADRS remission (total score <=10) (IDR 6 mg then 12 mg): fulfilled
- Time to clinical remission after administration (IDR 6 mg then 12 mg): ≤ 2 h
- Changes in vital parameters (except temporary, clinically non-relevant increase in heart rate and blood pressure shortly after administration): no other noteworthy changes in vital parameters

Source: patent US20250205199A1, “5-METHOXY-N,N-[…][…] THE TREATMENT OF SOCIAL/EMOTIONAL […] DETACHMENT” (GH RESEARCH IRELAND LIMITED, priority 2022, published 2025)
